These results are taken from ChEMBL document CHEMBL2429779, “Synthesis and anti-inflammatory activity of three nitro chalcones” (Bioorg Med Chem Lett, 2013).

Structures are written as SMILES. The source made the active and inactive calls. The rule behind the calls is not given here.

Series [1] is described as follows: Solubility of the compound in water. The format is physicochemical. The settings on record: buffer.
Series [2] can be described thus: Solubility of the compound in DMSO. The format is physicochemical.
Series [3] has as its system Rattus norvegicus. Kind of series: Antiinflammatory activity in Wistar rat assessed as protection against carrageenan-induced paw edema at 200 mg/kg, ip measured after 2 to 7 hrs by pletismometric analysis relative to vehicle-treated control. The format is functional. The settings on record: route intraperitoneal. (In general: In the carrageenan paw model, swelling and tenderness develop within hours.)

Series [4] concerns Rattus norvegicus. Kind of series: Antiinflammatory activity in Wistar rat assessed as protection against carrageenan-induced paw edema at 200 mg/kg, ip measured after 1 hr by pletismometric analysis relative to vehicle-treated control. The settings on record: route intraperitoneal. The format is functional.
The test system of series [5] is Rattus norvegicus. Kind of series: Antiinflammatory activity in Wistar rat assessed as protection against carrageenan-induced paw edema at 200 mg/kg, ip by pletismometric analysis. The format is functional, organism-based. More on the design: dose 200 mg/kg. The settings on record: TDE = time-dependent effect.
Series [6] deals with Rattus norvegicus. The series can be described thus: Antiinflammatory activity in Wistar rat assessed as protection against carrageenan-induced paw edema at 200 mg/kg, po after 4 to 7 hrs by pletismometric analysis relative to vehicle-treated control. The format is functional.
The test system of series [7] is Rattus norvegicus. Kind of series: Antiinflammatory activity in Wistar rat assessed as protection against carrageenan-induced paw edema at 200 mg/kg, po after 3 hrs by pletismometric analysis relative to vehicle-treated control. The format is functional.
Series [8] deals with Rattus norvegicus. The series can be described thus: Antiinflammatory activity in Wistar rat assessed as protection against carrageenan-induced paw edema at 200 mg/kg, po by pletismometric analysis. The format is functional, organism-based. On the set-up: dose 200 mg/kg. The settings on record: TDE = time-dependent effect.
Series [9] relates to Rattus norvegicus. The series can be described thus: Antiinflammatory activity in Wistar rat assessed as protection against carrageenan-induced paw edema at 10 mg/kg, po after 3 to 7 hrs by pletismometric analysis relative to vehicle-treated control. The format is functional.
Series [10] relates to Rattus norvegicus. The series can be described thus: Antiinflammatory activity in Wistar rat assessed as protection against carrageenan-induced paw edema at 10 mg/kg, po after 2 hrs by pletismometric analysis relative to vehicle-treated control. The format is functional.
Series [11] relates to Rattus norvegicus. The series can be described thus: Antiinflammatory activity in Wistar rat assessed as protection against carrageenan-induced paw edema at 200 mg/kg, po after 2 to 7 hrs by pletismometric analysis relative to vehicle-treated control. The format is functional, organism-based. More on the design: dose 200 mg/kg.
The test system of series [12] is Rattus norvegicus. The series can be described thus: Antiinflammatory activity in Wistar rat assessed as protection against carrageenan-induced paw edema at 200 mg/kg, ip measured after 3 to 7 hrs by pletismometric analysis relative to vehicle-treated control. The format is functional, organism-based. On the set-up: dose 200 mg/kg.
In series [13] the test system is Rattus norvegicus. Kind of series: Antiinflammatory activity in Wistar rat assessed as protection against carrageenan-induced paw edema at 200 mg/kg, ip measured after 2 hrs by pletismometric analysis relative to vehicle-treated control. The format is functional. The settings on record: route intraperitoneal.
Series [14] relates to Rattus norvegicus. The series can be described thus: Antiinflammatory activity in Wistar rat assessed as protection against carrageenan-induced paw edema at 200 mg/kg, po after 1 hr by pletismometric analysis relative to vehicle-treated control. The format is functional.
Series [15] relates to Rattus norvegicus. Kind of series: Antiinflammatory activity in Wistar rat assessed as protection against carrageenan-induced paw edema at 200 mg/kg, po after 2 hrs by pletismometric analysis relative to vehicle-treated control. The format is functional.
Series [16] relates to Rattus norvegicus. Kind of series: Antiinflammatory activity in Wistar rat assessed as protection against carrageenan-induced paw edema at 200 mg/kg, po after 7 hrs by pletismometric analysis relative to vehicle-treated control. The format is functional.
In series [17] the test system is Rattus norvegicus. Kind of series: Antiinflammatory activity in Wistar rat assessed as protection against carrageenan-induced paw edema at 200 mg/kg, ip measured after 2 to 7 hrs by pletismometric analysis. On the set-up: dose 200 mg/kg. The format is functional, organism-based.
The subject of series [18] is Rattus norvegicus. Kind of series: Antiinflammatory activity in Wistar rat assessed as protection against carrageenan-induced paw edema at 200 mg/kg, po after 3 to 7 hrs by pletismometric analysis relative to vehicle-treated control. More on the design: dose 200 mg/kg. The format is functional, organism-based.

Take `O=C(/C=C/c1ccccc1)c1ccccc1[N+](=O)[O-]`: the solubility result in series [1] is reported as “Insoluble”; in series [2], “soluble”. The Activity with Rattus norvegicus [3] was 50%; in the series on Rattus norvegicus [5] it was “tde”; in the series with Rattus norvegicus [6] it was 30%; in the series on Rattus norvegicus [8] it was “tde”. Moreover, the figures for the “%max” value in the series on Rattus norvegicus [4] and in the series on Rattus norvegicus [7] were 58.2% and 34.8%, respectively.

Take `Cc1cnc(NC(=O)C2=C(O)c3ccccc3S(=O)(=O)N2C)s1` [MELOXICAM]: in the series with Rattus norvegicus [9], the Activity is 50%. Further, in the series with Rattus norvegicus [10], the “%max” value is 59.3%.

With `O=C(/C=C/c1ccccc1)c1ccc([N+](=O)[O-])cc1`, the outcome in the series on Rattus norvegicus [11] and in the series on Rattus norvegicus [12] was Active. Besides, the solubility entry in series [1] is listed as “Insoluble”; in series [2] it was “soluble”. In addition, the “%max” value with Rattus norvegicus [13] stood at 43.2%; with Rattus norvegicus [14], 38%. Also, the Activity result in the series with Rattus norvegicus [5] was “tde”; with Rattus norvegicus [15], 20%; in the series on Rattus norvegicus [8], “tde”.

For `O=C(/C=C/c1ccccc1)c1cccc([N+](=O)[O-])c1`, the Activity with Rattus norvegicus [16] is 0%; in the series with Rattus norvegicus [5], “tde”; with Rattus norvegicus [8], “tde”. Besides, the solubility entry in series [1] was “Insoluble”; in [2] it was “soluble”. Also, the result in the series with Rattus norvegicus [17] was Active. In addition, the “%max” value with Rattus norvegicus [4] turned out to be 68%; in the series with Rattus norvegicus [15] it was 31%. The outcome in the series with Rattus norvegicus [18] was inactive.
